Assay results reported in ChEMBL document CHEMBL5726922, “Chemokine CXCR1 and CXCR2 receptor antagonist compounds, and use thereof in the treatment of chemokine-mediated pathologies” (2019).

How the values were obtained:
[1] = biological target: T1, C-X-C chemokine receptor type 2 (Homo sapiens, UniProt P25025); test: (§1) J. Immunol. 170: 2904-2911).To evaluate the direct interaction of the CXCR2 or CXCR1 receptor with β-arrestin 2, a test of β-arrestin 2 recruitment for CXCR2 or CXCR1 based on complementation of the β-galactosidase enzyme (Olson K. R., Eglen R. M., Beta-galactosidase complementation: a cell-based luminescent assay platform for drug discovery. Assay Drug Dev. Technol. 2007 February; 5(1); 137-44), as established by DiscoveRx Corporation was used. Stimulation of these two cell lines with CXCL8 (10 nM) induces the recruitment of β-arrestin 2, as indicated by a significant increase in the induction factor. All the CXCR2 antagonists are tested in a dose-dependent manner and the concentration corresponding to 50% inhibition of the response is determined (IC50=concentration of half-inhibition).β-Arrestin Recruitment Test: “PathHunter HEK293-CXCR2” or “U2OS hCXCR1 β-arrestin” cells (DiscoveRx Corporation) were seeded overnight at 10 000 cells/well (384-well format) in 20 μl of Opti MEM I medium. Preincubation with the antagonist or the vehicle for 30 minutes at 37° C. and 5% CO2 was followed by 60 minutes of stimulation with CXCL8 at 37° C. and 5% CO2. The cells were then placed at room temperature for 30 minutes. The PathHunter detection reagent (DiscoveRx Corporation) was added. […]
T1 sequence (P25025 whole entry): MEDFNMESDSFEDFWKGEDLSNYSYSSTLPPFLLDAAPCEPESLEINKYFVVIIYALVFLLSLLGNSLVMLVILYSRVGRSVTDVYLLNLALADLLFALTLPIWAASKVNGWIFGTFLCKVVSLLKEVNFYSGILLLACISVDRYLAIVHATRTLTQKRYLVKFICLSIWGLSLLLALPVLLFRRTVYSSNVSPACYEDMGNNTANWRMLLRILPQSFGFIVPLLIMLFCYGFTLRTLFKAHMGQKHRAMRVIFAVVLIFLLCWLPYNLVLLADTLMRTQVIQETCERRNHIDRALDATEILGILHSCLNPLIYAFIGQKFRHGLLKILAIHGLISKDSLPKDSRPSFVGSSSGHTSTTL

[2] = biological target: T2, C-X-C chemokine receptor type 1 (Homo sapiens, UniProt P25024); test: as §1
T2 sequence (P25024 whole entry): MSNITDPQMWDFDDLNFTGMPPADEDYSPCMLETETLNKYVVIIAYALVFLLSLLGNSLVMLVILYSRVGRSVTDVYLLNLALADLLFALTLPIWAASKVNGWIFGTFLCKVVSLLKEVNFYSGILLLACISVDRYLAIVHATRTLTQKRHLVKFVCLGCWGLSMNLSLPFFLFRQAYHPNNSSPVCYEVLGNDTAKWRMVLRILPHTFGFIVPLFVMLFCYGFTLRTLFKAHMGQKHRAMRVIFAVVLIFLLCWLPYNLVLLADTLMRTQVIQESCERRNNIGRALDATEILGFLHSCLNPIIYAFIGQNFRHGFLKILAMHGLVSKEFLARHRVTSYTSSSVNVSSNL

IC50 [1]: > 20 nM
IC50 [2]: > 200 nM
Compound: CC[C@@H](Nc1c(Nc2ccc(Cl)c(S(C)(=O)=NCCN(C)C)c2O)c(=O)c1=O)c1ccc(C)o1 (some centres not stated)
